Results on 20 molecules are retold here after patent publication US11999715B2, “ASK1 inhibiting agents” (BIOGEN MA INC., priority 2018, dated 2024).

Experiment [1] addresses T1, ASK1 T838 auto phosphorylation (Homo sapiens, UniProt Q99683).
T1 sequence (Q99683 1-1374): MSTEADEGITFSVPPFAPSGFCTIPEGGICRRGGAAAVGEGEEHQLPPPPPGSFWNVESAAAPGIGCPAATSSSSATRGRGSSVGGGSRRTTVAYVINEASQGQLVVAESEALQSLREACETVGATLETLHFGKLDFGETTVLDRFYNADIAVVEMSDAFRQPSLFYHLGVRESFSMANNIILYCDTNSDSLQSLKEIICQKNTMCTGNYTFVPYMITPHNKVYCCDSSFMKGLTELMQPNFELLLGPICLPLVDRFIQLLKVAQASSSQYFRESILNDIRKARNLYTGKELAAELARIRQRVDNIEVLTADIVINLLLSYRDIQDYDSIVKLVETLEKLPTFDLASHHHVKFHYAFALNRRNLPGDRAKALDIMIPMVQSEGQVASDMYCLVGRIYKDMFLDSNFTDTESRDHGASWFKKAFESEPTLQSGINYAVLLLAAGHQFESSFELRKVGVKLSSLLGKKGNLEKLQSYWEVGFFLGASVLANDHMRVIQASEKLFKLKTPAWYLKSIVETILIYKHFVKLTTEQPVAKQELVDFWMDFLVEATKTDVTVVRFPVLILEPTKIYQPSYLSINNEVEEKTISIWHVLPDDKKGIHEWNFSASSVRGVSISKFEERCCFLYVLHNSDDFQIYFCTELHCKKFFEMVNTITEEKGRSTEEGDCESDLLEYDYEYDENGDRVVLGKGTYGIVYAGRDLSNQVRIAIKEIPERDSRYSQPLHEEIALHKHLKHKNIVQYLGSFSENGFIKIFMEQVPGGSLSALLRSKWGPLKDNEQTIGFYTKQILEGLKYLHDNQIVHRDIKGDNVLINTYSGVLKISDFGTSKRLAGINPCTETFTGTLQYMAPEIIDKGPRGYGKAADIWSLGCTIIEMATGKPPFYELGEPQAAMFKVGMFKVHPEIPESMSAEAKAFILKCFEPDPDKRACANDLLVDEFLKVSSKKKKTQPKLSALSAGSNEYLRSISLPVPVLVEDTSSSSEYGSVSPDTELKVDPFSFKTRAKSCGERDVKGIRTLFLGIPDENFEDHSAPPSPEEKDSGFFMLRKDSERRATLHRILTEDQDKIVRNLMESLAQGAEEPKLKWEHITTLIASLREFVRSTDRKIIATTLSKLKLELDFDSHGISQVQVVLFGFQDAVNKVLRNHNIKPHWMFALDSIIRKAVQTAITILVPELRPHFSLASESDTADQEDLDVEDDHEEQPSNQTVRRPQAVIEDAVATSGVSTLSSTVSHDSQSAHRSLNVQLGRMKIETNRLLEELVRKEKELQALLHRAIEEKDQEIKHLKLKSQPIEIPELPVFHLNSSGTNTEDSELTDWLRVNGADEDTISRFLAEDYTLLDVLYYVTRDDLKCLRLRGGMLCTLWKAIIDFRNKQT
The experiment in a line: ASK1 (AUTO PHOS T838) assay, MSD format, in HEK-293T cells transfected with ASK1-V5. Format: cell-based. The conditions noted are these: ASK1 T838 auto phosphorylation in HEK-293T cells, 1 hr compound incubation; class symbols. An outline of the steps: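 HEK-293T cells transiently transfected with full-length ASK1-V5 plasmid were replated, then treated 1 h at 37 °C with a 10-point, 3-fold series from 20 μM. Lysates were probed by MSD with anti-pASK1 T838 and a sulfo-tag secondary, read by chemiluminescence. IC50 came from a 4-parameter fit of normalized % activity.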

For a further experiment, the target named is T2, ASK1/MAP3K5 (Homo sapiens, UniProt Q99683).
T2 sequence (Q99683 1-1374): T1 sequence (Q99683 1-1374)
The experiment is described as follows: ASK1/MAP3K5 kinase assay by Reaction Biology Corp. (headed ASK1 TR-FRET Assay). It counts as biochemical. The conditions noted are these: 20 μM myelin basic protein, 10 μM ATP, class symbols. An outline of the steps:
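Radiometric filter-binding assay with ASK1/MAP3K5, 20 μM MBP substrate and 10 μM ATP plus ^33P-ATP in HEPES pH 7.5 buffer with 1% DMSO. Compounds were preincubated with kinase 20 min, and the reaction then ran 2 hours at room temperature.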
For orientation: In TR-FRET formats the signal depends on donor and acceptor labels being close together.

Molecules are shown by their SMILES. Where only a bound is given, the exact number is not on record here.

The term IC50 denotes the concentration that gives 50% inhibition. Lower therefore signals higher potency. Consider `CCCn1cc(C(=O)Nc2cccc(-c3nncn3C(C)C(F)(F)F)n2)c(OC)n1` (stereo not shown) [Example 59, 3-Methoxy-1-propyl-N-(6-(4-(1,1,1-trifluoropropan-2-yl)-4H-1,2,4-triazol-3-yl)pyridin-2-yl)-1H-pyrazole-4-carboxamide], for which the values for the IC50 (in experiment [1]; on ASK1/MAP3K5) were no more than 1 µM and no more than 0.1 µM, respectively.
As for `COc1nn(-c2cc(C#N)ccn2)cc1C(=O)Nc1cccc(-c2nncn2C(C)C)n1` [Example 65, 1-(4-Cyanopyridin-2-yl)-N-(6-(4-isopropyl-4H-1,2,4-triazol-3-yl)pyridin-2-yl)-3-methoxy-1H-pyrazole-4-carboxamide], the half-inhibitory concentration (IC50) was no more than 1 µM in experiment [1] and no more than 0.1 µM against ASK1/MAP3K5.
For the molecule `COc1nn(-c2cncc(C)c2)cc1C(=O)Nc1cccc(-c2nncn2C(C)C)n1` [Example 67, N-(6-(4-Isopropyl-4H-1,2,4-triazol-3-yl)pyridin-2-yl)-3-methoxy-1-(5-methylpyridin-3-yl)-1H-pyrazole-4-carboxamide], the IC50 in experiment [1] was no more than 1 µM; against ASK1/MAP3K5 it was no more than 0.1 µM.
For `COc1nn(-c2cncc(C#N)c2)cc1C(=O)Nc1cccc(-c2nncn2C(C)C)n1` [Example 69, 1-(5-Cyanopyridin-3-yl)-N-(6-(4-isopropyl-4H-1,2,4-triazol-3-yl)pyridin-2-yl)-3-methoxy-1H-pyrazole-4-carboxamide] the same measures were no more than 1 µM and no more than 0.1 µM.
For `COc1nn(-c2cncc(O)c2)cc1C(=O)Nc1cccc(-c2nncn2C(C)C)n1` [Example 70, 1-(5-Hydroxypyridin-3-yl)-N-(6-(4-isopropyl-4H-1,2,4-triazol-3-yl)pyridin-2-yl)-3-methoxy-1H-pyrazole-4-carboxamide], in that order: 1 to 10 µM and no more than 0.1 µM.
Consider `COc1cncc(-n2cc(C(=O)Nc3cccc(-c4nncn4C(C)C)n3)c(OC)n2)c1` [Example 71, N-(6-(4-Isopropyl-4H-1,2,4-triazol-3-yl)pyridin-2-yl)-3-methoxy-1-(5-methoxypyridin-3-yl)-1H-pyrazole-4-carboxamide], for which the 50% inhibitory concentration (IC50) in experiment [1] is no more than 1 µM; against ASK1/MAP3K5, no more than 0.1 µM.
As to `COc1nn(-c2cncc(OC(C)C)c2)cc1C(=O)Nc1cccc(-c2nncn2C(C)C)n1` [Example 72, 1-(5-Isopropoxypyridin-3-yl)-N-(6-(4-isopropyl-4H-1,2,4-triazol-3-yl)pyridin-2-yl)-3-methoxy-1H-pyrazole-4-carboxamide], the IC50 in experiment [1] was no more than 1 µM; at ASK1/MAP3K5 it was no more than 0.1 µM.
As for `CC(C)n1cnnc1-c1cccc(NC(=O)c2cn(-c3cncc(Br)c3)nc2C(F)F)n1` [Example 74, 1-(5-Bromopyridin-3-yl)-3-(difluoromethyl)-N-(6-(4-isopropyl-4H-1,2,4-triazol-3-yl)pyridin-2-yl)-1H-pyrazole-4-carboxamide], the IC50 is no more than 1 µM in experiment [1] and no more than 0.1 µM on ASK1/MAP3K5.
`Cc1cncc(-n2cc(C(=O)Nc3cccc(-c4nncn4C(C)C)n3)c(C(F)F)n2)c1` [Example 75, 3-(Difluoromethyl)-N-(6-(4-isopropyl-4H-1,2,4-triazol-3-yl)pyridin-2-yl)-1-(5-methylpyridin-3-yl)-1H-pyrazole-4-carboxamide]: the results for the half-maximal inhibitory concentration (IC50) (in experiment [1]; against ASK1/MAP3K5) were no more than 1 µM and no more than 0.1 µM, respectively.
As for `CC(C)n1cnnc1-c1cccc(NC(=O)c2cn(-c3cncc(C#N)c3)nc2C(F)F)n1` [Example 76, 1-(5-Cyanopyridin-3-yl)-3-(difluoromethyl)-N-(6-(4-isopropyl-4H-1,2,4-triazol-3-yl)pyridin-2-yl)-1H-pyrazole-4-carboxamide], the IC50 in experiment [1] was no more than 1 µM; against ASK1/MAP3K5, no more than 0.1 µM.
Take `CC(C)n1cnnc1-c1cccc(NC(=O)c2cn(-c3cncc(C4CC4)c3)nc2C(F)F)n1` [Example 77, 1-(5-Cyclopropylpyridin-3-yl)-3-(difluoromethyl)-N-(6-(4-isopropyl-4H-1,2,4-triazol-3-yl)pyridin-2-yl)-1H-pyrazole-4-carboxamide]: the half-inhibitory concentration (IC50) is no more than 1 µM in experiment [1] and no more than 0.1 µM against ASK1/MAP3K5.
For `COc1cncc(-n2cc(C(=O)Nc3cccc(-c4nncn4C(C)C)n3)c(C(F)F)n2)c1` [Example 78, 3-(Difluoromethyl)-N-(6-(4-isopropyl-4H-1,2,4-triazol-3-yl)pyridin-2-yl)-1-(5-methoxypyridin-3-yl)-1H-pyrazole-4-carboxamide], in that order: no more than 1 µM and no more than 0.1 µM.
Turning to `CC(C)n1cnnc1-c1cccc(NC(=O)c2cn(-c3cncc(N(C)C)c3)nc2C(F)F)n1` [Example 79, 3-(Difluoromethyl)-1-(5-(dimethylamino)pyridin-3-yl)-N-(6-(4-isopropyl-4H-1,2,4-triazol-3-yl)pyridin-2-yl)-1H-pyrazole-4-carboxamide], the IC50 was no more than 1 µM in experiment [1] and no more than 0.1 µM against ASK1/MAP3K5.
For the molecule `CC(C)n1cnnc1-c1cccc(NC(=O)c2cn(-c3cncc(O)c3)nc2C(F)F)n1` [Example 80, 3-(Difluoromethyl)-1-(5-hydroxypyridin-3-yl)-N-(6-(4-isopropyl-4H-1,2,4-triazol-3-yl)pyridin-2-yl)-1H-pyrazole-4-carboxamide], the IC50 in experiment [1] was no more than 1 µM; at ASK1/MAP3K5, no more than 0.1 µM.
Regarding `CC(C)Oc1cncc(-n2cc(C(=O)Nc3cccc(-c4nncn4C(C)C)n3)c(C(F)F)n2)c1` [Example 81, 3-(Difluoromethyl)-1-(5-isopropoxypyridin-3-yl)-N-(6-(4-isopropyl-4H-1,2,4-triazol-3-yl)pyridin-2-yl)-1H-pyrazole-4-carboxamide], the half-inhibitory concentration (IC50) in experiment [1] was no more than 1 µM; on ASK1/MAP3K5, no more than 0.1 µM.
For `CC(C)n1cnnc1-c1cccc(NC(=O)c2cn(-c3cccnc3)nc2C(F)F)n1` [Example 82, 3-(Difluoromethyl)-N-(6-(4-isopropyl-4H-1,2,4-triazol-3-yl)pyridin-2-yl)-1-(pyridin-3-yl)-1H-pyrazole-4-carboxamide] the same measures were no more than 1 µM and no more than 0.1 µM.
On to `COc1nn(-c2cccnn2)cc1C(=O)Nc1cccc(-c2nncn2C(C)C)n1` [Example 84, N-(6-(4-Isopropyl-4H-1,2,4-triazol-3-yl)pyridin-2-yl)-3-methoxy-1-(pyridazin-3-yl)-1H-pyrazole-4-carboxamide], for which the half-inhibitory concentration (IC50) was no more than 1 µM in experiment [1] and no more than 0.1 µM on ASK1/MAP3K5.
Regarding `COc1nn(-c2cccnn2)cc1C(=O)Nc1cccc(-c2nncn2[C@@H](C)C(F)(F)F)n1` [Example 85, (S)-3-Methoxy-1-(pyridazin-3-yl)-N-(6-(4-(1,1,1-trifluoropropan-2-yl)-4H-1,2,4-triazol-3-yl)pyridin-2-yl)-1H-pyrazole-4-carboxamide], the IC50 was no more than 1 µM in experiment [1] and no more than 0.1 µM against ASK1/MAP3K5.
With `COc1nn(-c2cccnn2)cc1C(=O)Nc1cccc(-c2nncn2[C@H](C)C(F)(F)F)n1` [Example 86, (R)-3-Methoxy-1-(pyridazin-3-yl)-N-(6-(4-(1,1,1-trifluoropropan-2-yl)-4H-1,2,4-triazol-3-yl)pyridin-2-yl)-1H-pyrazole-4-carboxamide], the values for the IC50 (in experiment [1]; against ASK1/MAP3K5) were 1 to 10 µM and 0.1 to 1 µM, respectively.
For `COc1nn(-c2cnccn2)cc1C(=O)Nc1cccc(-c2nncn2[C@@H](C)C(F)(F)F)n1` [Example 87, (S)-3-Methoxy-1-(pyrazin-2-yl)-N-(6-(4-(1,1,1-trifluoropropan-2-yl)-4H-1,2,4-triazol-3-yl)pyridin-2-yl)-1H-pyrazole-4-carboxamide] the same measures were no more than 1 µM and no more than 0.1 µM.
